Our source for the EC (1.5-fold) and maximal fold induction values is patent US9975900B2, “Substituted imidazo[1,2-α]pyrazines for treating spinal muscular atrophy” (Hoffmann-La Roche Inc., priority 2014, dated 2018).

Where a name gives a salt, the structure may show the parent alone.

Experiment [1] concerns full length SMN2 minigene mRNA (HEK293H cells stably transfected with the SMN2-A minigene construct). The experiment can be described thus: RT-qPCR assay for SMN2 minigene pre-mRNA splicing in cultured cells. It counts as cell-based. The following applies: Homo sapiens, HEK293-H, 24 hours, 7-point concentration curve, concentration giving 1.5-fold FL SMN2mini mRNA vs vehicle, read-out: EC1.5x minigene (EC1.5x concentration for production of full length SMN2 minigene mRNA). Summed up:
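HEK293H cells stably carrying SMN2-A minigene were treated 24 h at 37 °C with a 7-point, 3.16-fold compound series, in duplicate. Minigene-specific exon 7–exon 8 mRNA measured by multiplex RT-qPCR with GAPDH normalisation; fold over vehicle by modified ΔΔCt, reported as EC1.5×.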

Experiment [2] has as its system SMN protein in SMA patient fibroblast cells (GM03813). The experiment can be described thus: SMN protein assay (HTRF) in cultured cells. It counts as cell-based. As to conditions: Homo sapiens, SMA Type 1 patient fibroblasts, 48 hours; for EC (1.5-fold): 7-point concentration curve, concentration giving 1.5 times SMN protein vs vehicle, read-out: EC1.5x SMN protein (EC1.5x concentration for SMN protein expression); for maximal fold induction: fold increase relative to vehicle control, read-out: Max. fold increase of SMN protein. The gist of the method: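 SMA patient fibroblasts (5,000 cells/well, DMEM-10% FBS) treated 48 h at 37 °C with 7-point, 3.16-fold dilutions, in triplicate. Lysates (RIPA) read overnight by HTRF with anti-SMN d2/cryptate at 665/620 nm. ΔF versus blank gives fold increase over vehicle, from which EC1.5× and maximum fold increase are derived.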
A general note: Time-resolved FRET reads energy transfer from a long-lived donor to a nearby acceptor.

As for `Cc1cn2cc(NC(=O)c3ccc(N4CCNC(C)(C)C4)cc3F)nc(C3CC3)c2n1` [Example 37, N-(8-cyclopropyl-2-methylimidazo[1,2-a]pyrazin-6-yl)-4-(3,3-dimethylpiperazin-1-yl)-2-fluorobenzamide hydrochloride], the EC (1.5-fold) in experiment [1] came to 0.0317 µM. In addition, in experiment [2], the EC (1.5-fold) turned out to be 0.287 µM and the maximal fold induction was 1.72.
On the same counts, the results for `COc1cc(N2CCN[C@H](C)C2)ccc1C(=O)Nc1cn2cc(C)nc2cn1` [Example 38, 2-methoxy-N-(2-methylimidazo[1,2-a]pyrazin-6-yl)-4-[(3R)-3-methylpiperazin-1-yl]benzamide] are 0.0578 µM, 0.206 µM and 1.74.
Regarding `COc1cc(N2CC[C@@H](N3CCCC3)C2)ccc1C(=O)Nc1cn2cc(C)nc2cn1` [Example 39, 2-methoxy-N-(2-methylimidazo[1,2-a]pyrazin-6-yl)-4-[(3R)-3-pyrrolidin-1-ylpyrrolidin-1-yl]benzamide], the EC (1.5-fold) in experiment [1] is 0.118 µM. Further, in experiment [2], the EC (1.5-fold) turned out to be 0.379 µM and the maximal fold induction was 1.75.
On the same counts, the results for `CC[C@@H]1CN(c2ccc(C(=O)Nc3cn4cc(C)nc4cn3)c(OC)c2)CCN1` [Example 40, 4-[(3R)-3-ethylpiperazin-1-yl]-2-methoxy-N-(2-methylimidazo[1,2-a]pyrazin-6-yl)benzamide] are 0.038 µM, 0.388 µM and 1.93.
As for `COc1cc(N2CCNC(C)(C)C2)ccc1C(=O)Nc1cn2cc(C)nc2cn1` [Example 41, 4-(3,3-dimethylpiperazin-1-yl)-2-methoxy-N-(2-methylimidazo[1,2-a]pyrazin-6-yl)benzamide], the results for the EC (1.5-fold) in experiment [1] and in experiment [2] were 0.0464 µM and 0.242 µM, respectively. Besides, the maximal fold induction in experiment [2] was 2.05.
On to `CC[C@H]1CN(c2ccc(C(=O)Nc3cn4cc(C)nc4cn3)c(F)c2)CCN1` [Example 42, 4-[(3S)-3-ethylpiperazin-1-yl]-2-fluoro-N-(2-methylimidazo[1,2-a]pyrazin-6-yl)benzamide hydrochloride], for which the EC (1.5-fold) in experiment [1] was 0.0144 µM. Moreover, in experiment [2], the EC (1.5-fold) was 0.231 µM and the maximal fold induction turned out to be 1.72.
On the same counts, the results for `Cc1cn2cc(NC(=O)c3ccc(N4CCN[C@H](C)C4)cc3F)nc(C(F)(F)F)c2n1` [Example 43, 2-fluoro-4-[(3R)-3-methylpiperazin-1-yl]-N-[2-methyl-8-(trifluoromethyl)imidazo[1,2-a]pyrazin-6-yl]benzamide] are 0.04 µM, 0.087 µM and 1.76.
On to `Cc1cn2cc(NC(=O)c3ccc(N4CCN[C@H](C)C4)cc3F)nc(C(F)F)c2n1` [Example 44, N-[8-(difluoromethyl)-2-methylimidazo[1,2-a]pyrazin-6-yl]-2-fluoro-4-[(3R)-3-methylpiperazin-1-yl]benzamide], for which the EC (1.5-fold) in experiment [1] stood at 0.0095 µM. Moreover, in experiment [2], the EC (1.5-fold) was 0.035 µM and the maximal fold induction came to 1.79.
On the same counts, the results for `Cc1cn2cc(NC(=O)c3ccc(N4CCNC(C(C)C)C4)cc3F)ncc2n1` (stereo not drawn) [Example 45, 2-fluoro-N-(2-methylimidazo[1,2-a]pyrazin-6-yl)-4-(3-propan-2-ylpiperazin-1-yl)benzamide hydrochloride] are 0.106 µM, 0.264 µM and 1.76.
For the molecule `CC[C@@H]1CN(c2ccc(C(=O)Nc3cn4cc(C)nc4cn3)c(OC)n2)CCN1` [Example 46, 6-[(3R)-3-ethylpiperazin-1-yl]-2-methoxy-N-(2-methylimidazo[1,2-a]pyrazin-6-yl)pyridine-3-carboxamide hydrochloride], the EC (1.5-fold) in experiment [1] turned out to be 0.189 µM. Further, in experiment [2], the EC (1.5-fold) was 0.58 µM and the maximal fold induction is 1.67.
On the same counts, the results for `COc1nc(N2CCNCC2)ccc1C(=O)Nc1cn2cc(C)nc2cn1` [Example 47, 2-methoxy-N-(2-methylimidazo[1,2-a]pyrazin-6-yl)-6-piperazin-1-ylpyridine-3-carboxamide hydrochlorid] are 0.129 µM, 0.551 µM and 1.64.
On the same counts, the results for `Cc1cn2cc(NC(=O)c3ccc(N4CCC(N5CCCC5)CC4)cc3F)nc(C)c2n1` [Example 48, N-(2,8-dimethylimidazo[1,2-a]pyrazin-6-yl)-2-fluoro-4-(4-pyrrolidin-1-ylpiperidin-1-yl)benzamide] are 0.0266 µM, 0.23 µM and 1.65.
On the same counts, the results for `CCOc1cc(N2CCC(N3CC(OC)C3)CC2)ccc1C(=O)Nc1cn2cc(C)nc2c(C)n1` [Example 49, N-(2,8-dimethylimidazo[1,2-a]pyrazin-6-yl)-2-ethoxy-4-[4-(3-methoxyazetidin-1-yl)piperidin-1-yl]benzamide] are 0.223 µM, 1.98 µM and 1.51.
